{"source": "patent US11566030B2", "about": "“Substituted 2,6-dihydropyrrolo[3,4-c]pyrazoles as pyruvate kinase activators” (priority 2021, dated 2023)", "biological_target": "T1, Human pyruvate kinase R (PKR) (Homo sapiens, UniProt P30613)", "T1 construct": "Human pyruvate kinase R (PKR), residues 14-574; 6xHis-8xArg-SUMO (N, cleaved yes); host or cells: E. coli", "T1 sequence (P30613 14-574)": "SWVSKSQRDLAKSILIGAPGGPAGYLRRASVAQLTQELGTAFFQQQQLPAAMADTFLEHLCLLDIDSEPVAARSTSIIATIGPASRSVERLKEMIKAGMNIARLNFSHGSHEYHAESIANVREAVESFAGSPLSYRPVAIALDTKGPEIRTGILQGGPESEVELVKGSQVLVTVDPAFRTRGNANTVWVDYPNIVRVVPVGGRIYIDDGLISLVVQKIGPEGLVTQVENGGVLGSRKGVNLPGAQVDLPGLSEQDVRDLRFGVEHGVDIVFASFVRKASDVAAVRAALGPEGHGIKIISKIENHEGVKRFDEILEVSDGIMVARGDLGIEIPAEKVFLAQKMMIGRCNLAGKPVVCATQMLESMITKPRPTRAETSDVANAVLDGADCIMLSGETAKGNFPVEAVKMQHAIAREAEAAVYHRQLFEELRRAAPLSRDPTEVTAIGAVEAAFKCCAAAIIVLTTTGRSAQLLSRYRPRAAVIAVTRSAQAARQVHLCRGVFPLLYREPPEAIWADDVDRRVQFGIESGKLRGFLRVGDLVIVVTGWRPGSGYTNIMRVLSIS", "test": "Biochemical assay for activation of pyruvate kinase R (Kinase-Glo luminescence, ATP generation)", "conditions": "for Emax: read-out: PKR % activation, maximal activation level achieved with each compound relative to the activation level achieved by AG-348 @ 10 μM", "procedure,_shortened": "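Recombinant human PKR (residues 14-574) expressed in E. coli with His-Arg-SUMO tag, tag cleaved, purified by Ni-NTA, anion exchange and size exclusion. Activation read as ATP generation by Kinase-Glo luminescence.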", "key": {"[1]": {"conditions": "PKR AC50 (nM), 0.1 nM PKR, 0.3 mM ADP, 0.1 mM PEP, 1% DMSO"}}, "note": "Read-outs that look alike come from different tables or passages of the source.", "data": [{"molecule": "Cc1c(S(=O)(=O)n2cc3c(n2)CN(C(=O)[C@@H](CO)c2ccccc2F)C3)cnn1CCF", "note": "[Compound 97, (2R)-1-{2-[1-(2-fluoroethyl)-5-methylpyrazol-4-ylsulfonyl]-4H,6H-pyrrolo[3,4-c]pyrazol-5-yl}-2-(2-fluorophenyl)-3-hydroxypropan-1-one]", "values": [{"measurement": "AC50", "value": 550, "unit": "nM"}, {"measurement": "Emax", "value": 102, "unit": "%"}]}, {"molecule": "Cc1c(S(=O)(=O)n2cc3c(n2)CN(C(=O)[C@H](CO)c2ccccc2Cl)C3)cnn1CCF", "note": "[Compound 98, (2S)-2-(2-chlorophenyl)-1-{2-[1-(2-fluoroethyl)-5-methylpyrazol-4-ylsulfonyl]-4H,6H-pyrrolo[3,4-c]pyrazol-5-yl}-3-hydroxypropan-1-one]", "values": [{"measurement": "AC50", "setting": "[1]", "value": 9.1, "unit": "nM"}, {"measurement": "Emax", "value": 117, "unit": "%"}]}, {"molecule": "Cc1c(S(=O)(=O)n2cc3c(n2)CN(C(=O)[C@@H](CO)c2ccccc2Cl)C3)cnn1CCF", "note": "[Compound 99, (2R)-2-(2-chlorophenyl)-1-{2-[1-(2-fluoroethyl)-5-methylpyrazol-4-ylsulfonyl]-4H,6H-pyrrolo[3,4-c]pyrazol-5-yl}-3-hydroxypropan-1-one]", "values": [{"measurement": "AC50", "setting": "[1]", "value": 410, "unit": "nM"}, {"measurement": "Emax", "value": 100, "unit": "%"}]}, {"molecule": "Cc1c(S(=O)(=O)n2cc3c(n2)CN(C(=O)[C@@H](CO)c2ccccc2F)C3)cnn1CC(F)F", "note": "[Compound 100, (R)-1-(2-((1-(2,2-difluoroethyl)-5-methyl-1H-pyrazol-4-yl)sulfonyl)-2,6 dihydropyrrolo[3,4-c]pyrazol-5(4H)-yl)-2-(2-fluorophenyl)-3-hydroxypropan-1-one]", "values": [{"measurement": "AC50", "value": 380, "unit": "nM"}, {"measurement": "Emax", "value": 126, "unit": "%"}]}, {"molecule": "Cc1c(S(=O)(=O)n2cc3c(n2)CN(C(=O)[C@H](CO)c2ccccc2Cl)C3)cnn1CC(F)F", "note": "[Compound 101, (2S)-2-(2-chlorophenyl)-1-{2-[1-(2,2-difluoroethyl)-5-methylpyrazol-4-ylsulfonyl]-4H,6H-pyrrolo[3,4-c]pyrazol-5-yl}-3-hydroxypropan-1-one]", "values": [{"measurement": "AC50", "setting": "[1]", "value": 8.5, "unit": "nM"}, {"measurement": "Emax", "value": 123, "unit": "%"}]}, {"molecule": "Cc1c(S(=O)(=O)n2cc3c(n2)CN(C(=O)[C@@H](CO)c2ccccc2Cl)C3)cnn1CC(F)F", "note": "[Compound 102, (2R)-2-(2-chlorophenyl)-1-{2-[1-(2,2-difluoroethyl)-5-methylpyrazol-4-ylsulfonyl]-4H,6H-pyrrolo[3,4-c]pyrazol-5-yl}-3-hydroxypropan-1-one]", "values": [{"measurement": "AC50", "setting": "[1]", "value": 690, "unit": "nM"}, {"measurement": "Emax", "value": 126, "unit": "%"}]}, {"molecule": "COc1ccccc1[C@@H](CO)C(=O)N1Cc2cn(S(=O)(=O)c3cnn(CC(F)F)c3C)nc2C1", "note": "[Compound 103, (2S)-1-{2-[1-(2,2-difluoroethyl)-5-methylpyrazol-4-ylsulfonyl]-4H,6H-pyrrolo[3,4-c]pyrazol-5-yl}-3-hydroxy-2-(2-methoxyphenyl)propan-1-one]", "values": [{"measurement": "AC50", "setting": "[1]", "value": 26, "unit": "nM"}, {"measurement": "Emax", "value": 101, "unit": "%"}]}, {"molecule": "COc1ccccc1[C@H](CO)C(=O)N1Cc2cn(S(=O)(=O)c3cnn(CC(F)F)c3C)nc2C1", "note": "[Compound 104, (2R)-1-{2-[1-(2,2-difluoroethyl)-5-methylpyrazol-4-ylsulfonyl]-4H,6H-pyrrolo[3,4-c]pyrazol-5-yl}-3-hydroxy-2-(2-methoxyphenyl)propan-1-one]", "values": [{"measurement": "AC50", "setting": "[1]", "value": 560, "unit": "nM"}, {"measurement": "Emax", "value": 121, "unit": "%"}]}, {"molecule": "CCc1ccccc1[C@@H](CO)C(=O)N1Cc2cn(S(=O)(=O)c3cnn(CC(F)F)c3)nc2C1", "note": "[Compound 105, (S)-1-(2-((1-(2,2-difluoroethyl)-1H-pyrazol-4-yl)sulfonyl)-2,6-dihydropyrrolo[3,4-c]pyrazol-5(4H)-yl)-2-(2-ethylphenyl)-3-hydroxypropan-1-one]", "values": [{"measurement": "AC50", "setting": "[1]", "value": 74, "unit": "nM"}, {"measurement": "Emax", "value": 67, "unit": "%"}]}, {"molecule": "CCc1ccccc1[C@H](CO)C(=O)N1Cc2cn(S(=O)(=O)c3cnn(CC(F)F)c3)nc2C1", "note": "[Compound 106, (R)-1-(2-((1-(2,2-difluoroethyl)-1H-pyrazol-4-yl)sulfonyl)-2,6-dihydropyrrolo[3,4-c]pyrazol-5(4H)-yl)-2-(2-ethylphenyl)-3-hydroxypropan-1-one]", "values": [{"measurement": "AC50", "setting": "[1]", "value": 210, "unit": "nM"}, {"measurement": "Emax", "value": 189, "unit": "%"}]}, {"molecule": "O=C([C@H](CO)c1ccccc1Cl)N1Cc2cn(S(=O)(=O)c3ncn(CC(F)F)n3)nc2C1", "note": "[Compound 107, (2S)-2-(2-chlorophenyl)-1-{2-[1-(2,2-difluoroethyl)-1,2,4-triazol-3-ylsulfonyl]-4H,6H-pyrrolo[3,4-c]pyrazol-5-yl}-3-hydroxypropan-1-one]", "values": [{"measurement": "AC50", "setting": "[1]", "value": 53, "unit": "nM"}, {"measurement": "Emax", "value": 89, "unit": "%"}]}, {"molecule": "O=C([C@@H](CO)c1ccccc1Cl)N1Cc2cn(S(=O)(=O)c3ncn(CC(F)F)n3)nc2C1", "note": "[Compound 108, (2R)-2-(2-chlorophenyl)-1-{2-[1-(2,2-difluoroethyl)-1,2,4-triazol-3-ylsulfonyl]-4H,6H-pyrrolo[3,4-c]pyrazol-5-yl}-3-hydroxypropan-1-one]", "values": [{"measurement": "AC50", "setting": "[1]", "value": 3300, "unit": "nM"}, {"measurement": "Emax", "value": 62, "unit": "%"}]}, {"molecule": "CCn1ncc(S(=O)(=O)n2cc3c(n2)CN(C(=O)[C@H](CO)c2ccccc2)C3)c1C(F)(F)F", "note": "[Compound 111, (2S)-1-{2-[1-ethyl-5-(trifluoromethyl)pyrazol-4-ylsulfonyl]-4H,6H-pyrrolo[3,4-c]pyrazol-5-yl}-3-hydroxy-2-phenylpropan-1-one]", "values": [{"measurement": "AC50", "setting": "[1]", "value": 1600, "unit": "nM"}, {"measurement": "Emax", "value": 42, "unit": "%"}]}, {"molecule": "CCn1ncc(S(=O)(=O)n2cc3c(n2)CN(C(=O)[C@@H](CO)c2ccccc2)C3)c1C(F)(F)F", "note": "[Compound 112, (2R)-1-{2-[1-ethyl-5-(trifluoromethyl)pyrazol-4-ylsulfonyl]-4H,6H-pyrrolo[3,4-c]pyrazol-5-yl}-3-hydroxy-2-phenylpropan-1-one]", "values": [{"measurement": "AC50", "setting": "[1]", "value": 3100, "unit": "nM"}, {"measurement": "Emax", "value": 174, "unit": "%"}]}, {"molecule": "O=C([C@H](CO)c1ccccc1)N1Cc2cn(S(=O)(=O)c3cnn(C4CCOC4)c3)nc2C1", "note": "(stereo partly drawn) [Compound 113, (2S)-3-hydroxy-1-(2-{[1-(oxolan-3-yl)-1H-pyrazol-4-yl]sulfonyl}-2H,4H,5H,6H-pyrrolo[3,4-c]pyrazol-5-yl)-2-phenylpropan-1-one]", "values": [{"measurement": "AC50", "value": 24, "unit": "nM"}, {"measurement": "Emax", "value": 47, "unit": "%"}]}, {"molecule": "COC(C(=O)N1Cc2cn(S(=O)(=O)c3cnn(CC(F)F)c3)nc2C1)c1ccccc1F", "note": "(stereo not shown) [Compound 114]", "values": [{"measurement": "AC50", "setting": "[1]", "value": 320, "unit": "nM"}, {"measurement": "Emax", "value": 134, "unit": "%"}]}, {"molecule": "COC(C(=O)N1Cc2cn(S(=O)(=O)c3cnn(CC(F)F)c3)nc2C1)c1ncccc1F", "note": "(stereo not shown) [Compound 115, 1-(2-{[1-(2,2-difluoroethyl)-1H-pyrazol-4-yl]sulfonyl}-2H,4H,5H,6H-pyrrolo[3,4-c]pyrazol-5-yl)-2-(3-fluoropyridin-2-yl)-2-methoxyethan-1-one]", "values": [{"measurement": "AC50", "value": 2100, "unit": "nM"}, {"measurement": "Emax", "value": 96, "unit": "%"}]}, {"molecule": "O=C([C@H](CO)c1ccccc1)N1Cc2cn(S(=O)(=O)c3cnn(C(F)F)c3)nc2C1", "note": "[Compound 116, (2S)-1-(2-{[1-(difluoromethyl)-1H-pyrazol-4-yl]sulfonyl}-2H,4H,5H,6H-pyrrolo[3,4-c]pyrazol-5-yl)-3-hydroxy-2-phenylpropan-1-one]", "values": [{"measurement": "AC50", "setting": "[1]", "value": 34, "unit": "nM"}, {"measurement": "Emax", "value": 53, "unit": "%"}]}, {"molecule": "O=C([C@H](CO)c1ccccc1)N1Cc2cn(S(=O)(=O)c3csc(C(F)(F)F)c3)nc2C1", "note": "[Compound 117, (2S)-3-hydroxy-2-phenyl-1-(2-{[5-(trifluoromethyl)thiophen-3-yl]sulfonyl}-2H,4H,5H,6H-pyrrolo[3,4-c]pyrazol-5-yl)propan-1-one]", "values": [{"measurement": "AC50", "setting": "[1]", "value": 22, "unit": "nM"}, {"measurement": "Emax", "value": 35, "unit": "%"}]}, {"molecule": "O=C([C@H](CO)c1ccccc1)N1Cc2cn(S(=O)(=O)c3c[nH]c(C(F)(F)F)c3)nc2C1", "note": "[Compound 118, (2S)-3-hydroxy-2-phenyl-1-(2-{[5-(trifluoromethyl)-1H-pyrrol-3-yl]sulfonyl}-2H,4H,5H,6H-pyrrolo[3,4-c]pyrazol-5-yl)propan-1-one]", "values": [{"measurement": "AC50", "value": 160, "unit": "nM"}, {"measurement": "Emax", "value": 13, "unit": "%"}]}]}
